Test results taken from patent US10065951B2, “Small molecule transcription modulators of bromodomains” (Icahn School of Medicine at Mount Sinai, priority 2014, dated 2018).

What was measured:
[1] = test system: rat primary oligodendrocyte progenitors; test: Oligodendrocyte progenitor differentiation (immunocytochemistry NG2/O4/MBP, qRT-PCR MOG); assay type: cell-based; conditions: 10 nM
Description: Early and differentiating progenitors were identified by positive immunoreactivity for the marker NG2 (dark) or O4 (light), respectively. FIG. 6B illustrates the number of NG2+, O4+ and NG2+/O4+ cells quantified in three independent experiments and the total number of oligodendrocyte lineage cells (mean±SD). FIG. 6C illustrates the results of rat primary cells cultured in medium containing 4c (10 nM) for 4 days and then labeled with O4 (light) and with the differentiation marker MBP (dark). FIG. 6D is a bar graph showing the number of MBP+ cells quantified in three independent experiments (mean±SD). FIG. 6E illustrates the qRT-PCR of the transcript levels of the late differentiation marker MOG in treated cells.
Cortex from rat p1 pups were dissected in L-15 medium and collected in NM10 medium (DMEM+10% FBS+2 mM glutamine+1 mM sodium pyruvate+100 U/ml penicillin+100 μg/ml streptomycin). The dissociated cells were plated into 75 cm^2 flasks (1.5 brain per flask) and cultured at 37° C. supplied with 5% CO2 for 7 days with the changing of fresh NM10 medium every other day. At day 8 the flasks were shaken for 16-18 h at 200 rpm and 37° C. and the medium containing the ‘shaken-off’ cells were collected. Oligodendrocyte progenitors (OPCs) were then isolated from the cell suspension by immunoselection using A2B5 antibodies followed by incubation with anti-immunoglobulin magnetic microbeads (50 nm in size and biodegradable) and separation using a high-gradient magnetic field generated by the permanent magnet in the MACS Separator unit (Miltenyi Biotec). The purified OPCs were plated in NM10 medium onto Lab Tek®II 8-well chamber slides (Nalge Nunc Inc.) at a density of 2×10^4 per well for immunocytochemistry, or poly-D-lysine-coated 6-well plates at a density of 2×10^5 per well for RNA isolation. After incubated for 8-16 hr, the medium was changed to ODM (DMEM, 2 mM L-glutamine, 1 mM sodium pyruvate, 10 ng/ml biotin, 100 μg/ml apotransferrin, 100 μM putrescine, 20 nM progesterone, 30 nM sodium selenite, 5 μg/ml insulin, 100 U/ml penicillin, 100 μg/ml streptomycin) supplemented with bFGF (20 ng/ml) and platelet derived growth factor (PDGF; 10 ng/ml), and cultured for additional one day as previously described (He, Y. et al., Neuron 55, 217-30 (2007)). Oligodendrocyte differentiation was induced by culturing the cells in the same medium devoid of mitogens (ODM) with or without compounds at indicated concentrations. […]
Images were captured at 20× objective using LSM 710 Meta confocal laser scanning microscope (Carl Zeiss MicroImaging, Inc.). For the quantification of the cells at different stages, three fields of each well and three wells of each condition were analyzed. […]

[2] = test system: oligodendrocyte progenitor cultures; test: Microarray and qRT-PCR gene expression in oligodendrocyte progenitor cultures; assay type: cell-based, rat
Description: Raw values were normalized to Gapdh levels and expressed relative to the levels detected in cells kept for 1 day in ODM. A housekeeping gene (act) was used as a control.
Total RNA were isolated from the cells using Trizol® Reagent following manufacturer's instruction and cleaned up using RNeasy Mini kit (Qiagen, Hilden, Germany). 0.5-1 μg of total RNA was used in 20 μl of reverse transcription (RT) reaction, using SuperScript RT-PCR kit (Invitrogen, Carlsbad, Calif.). Quantitative RT-PCR was performed using Applied Biosystems SYBR green PCR master mix in 384-well plate in ABI 7900HT Sequence Detection PCR System. The PCR was performed in a 20 μl reaction mixture containing 0.2 μl cDNA as template and 100 nM specific oligonucleotide primer pairs using program denaturation at 95° C. for 15 s; annealing and extension at 60° C. for 1 min for 40 cycles. Melting curve of each sample was measured to ensure the specificity of the products. Data were normalized to the internal control GAPDH and analyzed using Pfaffl ΔΔCt method.
To determine how 4c exerts the pro-differentiative effect at 10 nM on the lineage progression of oligodendrocyte progenitors when the global histone acetylation is unchanged, a possibility that the compound would primarily affect CBP binding to target genes was investigated. To test this hypothesis, a microarray analysis was performed of cultures either untreated or treated with 10 nM 4c for 1 or 4 days.

[3] = test system: p53-induced p21 luciferase activity in U2OS cells; test: p53-dependent p21 luciferase activity in U2OS cells under doxorubicin treatment; assay type: cell-based, human
Description: The luciferase activity was normalized to renilla luciferase as a control. The IC50 was calculated using PRISM software.
The activity of the pyrido-indole compounds (FIG. 10) were evaluated for their ability to inhibit p53 activation in human osteosarcoma (U2OS) cells. The p53 activation was induced by DNA damage upon treatment of doxorubicin, and effects of compound treatment were measured by p53-dependent p21 luciferase activity. U2OS Cells were transfected with p21 luciferase (1 μg) and renilla luciferase (100 ng) vectors in six-well plate format using Fugene 6 (Roche). 1.1 μg of vector was incubated with […] of Fugene 6 reagent for 30 min. After 3-4 hours of transfection, cell were treated with compounds overnight, and then exposed to 300 ng of doxorubicin for the next 24 hours. In these experiments, DMSO, transfected cells with empty vectors, and cells without doxorubicin were used as controls. The DMSO concentration was maintained at 0.01%. Transfected cells with doxorubicin treatment were used as a positive control. The luciferase activity was estimated by following the manufacturer's instruction (Promega) in a luminometer. Both active and passive lysis of cells yielded consistent results. The inhibitory activity (IC50) of a small molecule on p21 luciferase activity was obtained from the average of three biological replicates using PRISM software.

[4] = 10 nM, four days of treatment, microarray
[5] = 10 nM, one day of treatment, microarray

## CC(=O)NCCCCn1c2c(c3ccccc31)C(=O)NCC2 [4c, 2,3,4,5-tetrahydro-5-(4′-acetamidobutyl)-1H-pyrido-[4,3-b]indol-1-one]
[1]; 4-day treatment
  percentage of MBP+ cells: increased percentage of MBP+ cells
[1]; 4-day treatment, qRT-PCR
  transcript levels of late-differentiation marker MOG: increased transcript levels
[1]; two-day treatment
  NG2+ progenitors: concomitant decrease of NG2+ progenitors
  percentage of O4+ cells: increased percentage of O4+ cells
[2]; [4]
  number of genes down-regulated: 536 genes
  number of genes up-regulated: 57 genes
[2]; [5]
  number of genes decreased more than 1.2 fold: 832 genes
  number of genes increased more than 1.2 fold: 169 genes
[2]; qRT-PCR, 4c-treated cells
  expression of Ctnnb1 and Lmnb1: reduced expression
[3]
  inhibition of p53-induced p21 activation: most potent effect
